Assay results taken from patent publication US20060052288A1, “Pharmaceutical composition for inhibiting the metastasis or preventing the recurrence of malignant tumor” (priority 2001, published 2006).

How the values were obtained:
[1] = system: HT-29 cells (human colon cancer); experiment: HT-29 metastatic models, dosing after lymph node metastasis observed (Experiment 3); type: in vivo; conditions: 10 animals, checked day 84; for Other organs MI (Metastatic Incidence): Diaphragm, Abdominal cavity, Thoracic cavity; for Liver MI (Metastatic Incidence) / Lung MI (Metastatic Incidence) / Lymph node MI (Metastatic Incidence) / Number of animals with metastasis: NCr nu/nu mice
Procedure: Experiment 3 (HT-29 Metastatic Models)
A segment (2 mm^2) of HT-29 cells (human colon cancer) was implanted into the vermiform appendix of 100 NCr nu/nu female mice (5 to 6 weeks old, 10 animals per group). Since the lymph node metastasis was observed on the 49th day after the implantation of tumor, a test compound (Compound A; the compound obtained in Preparation 1 as mentioned below, and Irinotechan (CPT-11)) was dissolved in a physiological saline solution, and each amount as indicated in Table 3 as mentioned below was administered intravenously to the mice on the 51st, 55th, 59th, and 63rd day after the implantation of tumor. On the other hand, in the control group (untreated with test compound), only a physiological saline solution was administered. The presence or absence of the metastasis of each organ was checked on the 84th day after the implantation of tumor.

[2] = system: HT-29 cells (human colon cancer); experiment: HT-29 metastatic models, dosing from day 15 (Experiment 2); type: in vivo, mouse; conditions: 10 animals, checked day 84; for Other organs MI (Metastatic Incidence): Diaphragm, Abdominal cavity, Thoracic cavity; for Liver MI (Metastatic Incidence) / Lung MI (Metastatic Incidence) / Lymph node MI (Metastatic Incidence) / Number of animals with metastasis: NCr nu/nu mice
Procedure: A test compound (Compound A; the compound obtained in Preparation 1 as mentioned below, Compound B; the compound obtained in Preparation 4 as mentioned below, and Irinotechan (CPT-11)) was dissolved in a physiological saline solution, and each amount as indicated in Table 2 as mentioned below was administered intravenously to the mice on the 15th, 19th, 23rd and 25th day after the implantation of tumor. On the other hand, in the control group (untreated with test compound), only a physiological saline solution was administered. The presence or absence of the metastasis of each organ was checked on the 84th day after the implantation of tumor.

[3] = system: H460 cells (human lung cancer); experiment: H460 metastatic models (Experiment 4); type: in vivo, mouse xenograft; parameters: key to Lymph node MI (Metastatic Incidence) / Liver MI (Metastatic Incidence) / Lung MI (Metastatic Incidence): number of animals with metastasis in the organ (out of 10); conditions: NCr nu/nu mice, 10 animals, checked day 36
Procedure: Experiment 4 (H460 Metastatic Models)
A segment (2 mm^2) of H460 cells (human lung cancer) was implanted into the left lung of 100 NCr nu/nu female mice (5 to 6 weeks old, 10 animals per group). […] On the other hand, in the control group (untreated with test compound), only a physiological saline solution was administered. The presence or absence of the metastasis of each organ was checked on the 36th day after the implantation of tumor.

[4] = system: M 5076 cells (mouse ovarian sarcoma cells); experiment: M 5076 liver metastatic models (survival); type: in vivo; conditions: for Prolongation rate of survival (%) / Survival days: BDF1 male mice; for Prolongation rate of survival (%): vs control; for Survival days: observed 120 days
Procedure: Experiment 1 (M 5076 Liver Metastatic Models)
One million of M 5076 cells (mouse ovarian sarcoma cells) were implanted into BDF1 male mice (5-weeks old, 8 animals per group) at the tail vein. […] In the control group (untreated with test compound), only a physiological saline solution was administered. The survival time (days) was measured in both the test compound-treated groups and the control group, and the prolongation rate of survival was calculated according to the following equation.

[5] = 20 mg/kg i.v. days 51, 55, 59, 63
[6] = 40 mg/kg i.v. days 51, 55, 59, 63
[7] = 5 mg/kg i.v. days 15, 19, 23, 25
[8] = 10 mg/kg i.v. days 15, 19, 23, 25
[9] = 20 mg/kg i.v. days 15, 19, 23, 25
[10] = 40 mg/kg i.v. days 15, 19, 23, 25
[11] = 5 mg/kg i.v. days 14, 18, 22, 26
[12] = 10 mg/kg i.v. days 14, 18, 22, 26
[13] = 20 mg/kg i.v. days 14, 18, 22, 26
[14] = 40 mg/kg i.v. days 14, 18, 22, 26
[15] = 80 mg/kg i.v. days 14, 18, 22, 26
[16] = 2.5 mg/kg i.v. days 15, 19, 23, 25
[17] = 2.5 mg/kg i.v. days 14, 18, 22, 26

## CM-dextran-7-ethyl-10-[3′-(glycyl-glycyl-glycylamino)propyloxy]-(20S)-camptothecin [Compound A]
[1]; [5]
  Other organs MI (Metastatic Incidence): 1
  Liver MI (Metastatic Incidence): 0
  Lung MI (Metastatic Incidence): 0
  Lymph node MI (Metastatic Incidence): 2
  Number of animals with metastasis: 3
[1]; [6]
  Other organs MI (Metastatic Incidence): 2
  Liver MI (Metastatic Incidence): 0
  Lung MI (Metastatic Incidence): 0
  Lymph node MI (Metastatic Incidence): 0
  Number of animals with metastasis: 2
[2]; [7]
  Other organs MI (Metastatic Incidence): 2
  Liver MI (Metastatic Incidence): 0
  Lung MI (Metastatic Incidence): 1
  Lymph node MI (Metastatic Incidence): 6
  Number of animals with metastasis: 6
[2]; [8]
  Other organs MI (Metastatic Incidence): 0
  Liver MI (Metastatic Incidence): 0
  Lung MI (Metastatic Incidence): 2
  Lymph node MI (Metastatic Incidence): 8
  Number of animals with metastasis: 8
[2]; [9]
  Other organs MI (Metastatic Incidence): 0
  Liver MI (Metastatic Incidence): 0
  Lung MI (Metastatic Incidence): 1
  Lymph node MI (Metastatic Incidence): 1
  Number of animals with metastasis: 2
[2]; [10]
  Other organs MI (Metastatic Incidence): 0
  Liver MI (Metastatic Incidence): 0
  Lung MI (Metastatic Incidence): 0
  Lymph node MI (Metastatic Incidence): 0
  Number of animals with metastasis: 0
[3]; [11]
  Liver MI (Metastatic Incidence): 0
  Lung MI (Metastatic Incidence): 1
  Lymph node MI (Metastatic Incidence): 2
  Number of animals with metastasis: 2
[3]; [12]
  Liver MI (Metastatic Incidence): 0
  Lung MI (Metastatic Incidence): 0
  Lymph node MI (Metastatic Incidence): 1
  Number of animals with metastasis: 1
[3]; [13]
  Liver MI (Metastatic Incidence): 0
  Lung MI (Metastatic Incidence): 2
  Lymph node MI (Metastatic Incidence): 2
  Number of animals with metastasis: 3
[3]; [14]
  Liver MI (Metastatic Incidence): 0
  Lung MI (Metastatic Incidence): 0
  Lymph node MI (Metastatic Incidence): 1
  Number of animals with metastasis: 1
[4]; 12.5 mg/kg i.v. on days 4, 8, 12
  Prolongation rate of survival (%): 150.5%
[4]; 12.5 mg/kg i.v. on days 4, 8, 12 after implantation
  Survival days: 37.57 days
[4]; 25 mg/kg i.v. on days 4, 8, 12
  Prolongation rate of survival (%): 187.5%
[4]; 25 mg/kg i.v. on days 4, 8, 12 after implantation
  Survival days: 43.13 days
[4]; 50 mg/kg i.v. on days 4, 8, 12
  Prolongation rate of survival (%): 224.8%
[4]; 50 mg/kg i.v. on days 4, 8, 12 after implantation
  Survival days: 48.71 days
[4]; M5076 liver metastatic models, summary in words
  activity of prolonging lifetime: excellent activity of prolonging lifetime

## CCc1c2c(nc3ccc(OC(=O)N4CCC(N5CCCCC5)CC4)cc13)-c1cc3c(c(=O)n1C2)COC(=O)[C@]3(O)CC [Irinotecan, reference compound]
[1]; [6]
  Other organs MI (Metastatic Incidence): 1
  Liver MI (Metastatic Incidence): 1
  Lung MI (Metastatic Incidence): 0
  Lymph node MI (Metastatic Incidence): 8
  Number of animals with metastasis: 8
[2]; [9]
  Other organs MI (Metastatic Incidence): 0
  Liver MI (Metastatic Incidence): 2
  Lung MI (Metastatic Incidence): 2
  Lymph node MI (Metastatic Incidence): 9
  Number of animals with metastasis: 9
[2]; [10]
  Other organs MI (Metastatic Incidence): 1
  Liver MI (Metastatic Incidence): 0
  Lung MI (Metastatic Incidence): 1
  Lymph node MI (Metastatic Incidence): 7
  Number of animals with metastasis: 7
[3]; [14]
  Liver MI (Metastatic Incidence): 0
  Lung MI (Metastatic Incidence): 1
  Lymph node MI (Metastatic Incidence): 0
  Number of animals with metastasis: 1
[3]; [15]
  Liver MI (Metastatic Incidence): 0
  Lung MI (Metastatic Incidence): 0
  Lymph node MI (Metastatic Incidence): 2
  Number of animals with metastasis: 2
[4]; 80 mg/kg i.v. on days 4, 8, 12
  Prolongation rate of survival (%): 50.0%
[4]; 80 mg/kg i.v. on days 4, 8, 12 after implantation
  Survival days: 22.50 days

## carboxymethyldextran-polyalcohol-(1S,9S)-1-(glycyl-glycyl-L-phenylalanyl-glycylamino)-9-ethyl-5-fluoro-2,3-dihydro-9-hydroxy-4-methyl-1H,12H-benzo[de]pyrano[3′,4′:6,7] indolizino[1,2-b]quinoline-10,13(9H,15H)-dione [Compound B]
[2]; [16]
  Other organs MI (Metastatic Incidence): 1
  Liver MI (Metastatic Incidence): 1
  Lung MI (Metastatic Incidence): 1
  Lymph node MI (Metastatic Incidence): 6
  Number of animals with metastasis: 6
[2]; [7]
  Other organs MI (Metastatic Incidence): 0
  Liver MI (Metastatic Incidence): 0
  Lung MI (Metastatic Incidence): 0
  Lymph node MI (Metastatic Incidence): 0
  Number of animals with metastasis: 0
[3]; [17]
  Liver MI (Metastatic Incidence): 0
  Lung MI (Metastatic Incidence): 0
  Lymph node MI (Metastatic Incidence): 1
  Number of animals with metastasis: 1
[3]; [11]
  Liver MI (Metastatic Incidence): 0
  Lung MI (Metastatic Incidence): 1
  Lymph node MI (Metastatic Incidence): 2
  Number of animals with metastasis: 2
